The values below come from US20250059164A1, “IRAK DEGRADERS AND USES THEREOF” (Kymera Therapeutics, Inc., priority 2023, published 2025).

Where only a bound is given, the exact number is not on record here.

The target in the assay is T1, IRAK4 (Homo sapiens, UniProt Q9NWZ3).
T1 construct: endogenous in cells; host or cells: OCI-LY10
T1 sequence (Q9NWZ3 1-460): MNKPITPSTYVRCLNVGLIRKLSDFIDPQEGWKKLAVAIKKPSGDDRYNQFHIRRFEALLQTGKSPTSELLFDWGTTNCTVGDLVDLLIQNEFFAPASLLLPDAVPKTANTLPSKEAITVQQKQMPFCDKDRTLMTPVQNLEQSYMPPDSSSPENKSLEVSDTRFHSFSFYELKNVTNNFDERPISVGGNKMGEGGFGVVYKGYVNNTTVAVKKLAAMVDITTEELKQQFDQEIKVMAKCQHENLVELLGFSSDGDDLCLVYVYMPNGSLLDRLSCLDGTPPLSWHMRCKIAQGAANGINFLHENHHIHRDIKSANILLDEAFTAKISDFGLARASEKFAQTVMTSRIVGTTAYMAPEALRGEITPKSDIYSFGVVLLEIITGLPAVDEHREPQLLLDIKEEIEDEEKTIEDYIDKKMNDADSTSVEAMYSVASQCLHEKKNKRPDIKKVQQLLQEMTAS
Briefly: IRAK4 MSD degradation in OCI-LY10. The class given is cell-based. The settings on record: OCI-LY10 cells, 24 hrs, Meso Scale Discovery. The method, then: Degradation of IRAK4 in OCI-LY10 was quantitatively measured using Meso Scale Discovery technology. […] Compounds were then added to the assay plates with a final top concentration of 1 to 10 μM in a 1:3 dilution series with total of 8 doses. The assay plates were then incubated for 4 to 24 hours at 37° C. under 5% CO2. […] To prepare MSD assay plates (Meso Scale Discovery Catalog number L15XA-3), the plates were coated with 2 μg/mL capture antibody (mouse Anti-IRAK4 antibody [2H9], ab119942) in PBS, at 40 μL/well. […] Cell lysates were then added to MSD assay plates and the plates were incubated at room temperature for 1 hour. The plates were then washed 3 times with 150 μL/well TBST buffer and 25 μL/well primary detection antibody (rabbit Anti-IRAK4 antibody [Y279], from Abcam. Catalog number ab32511, 1 μg/mL). The assay plates were then incubated at room temperature for 1 hour, washed 3 times with 150 μL/well TBST buffer and 25 μL/well secondary detection antibody, SULFO-TAG anti-rabbit antibody were added (anti-rabbit antibody from Meso Scale Discovery, Catalog number R32AB-1, 1 μg/mL). The assay plates were then incubated at room temperature for 1 hour, washed 3 times with 150 μL/well TBST buffer, and 150 μL/well MSD reading buffer (Meso Scale Discovery catalog number R92TC-2) was added. The plates were then analyzed by a MSD reader (Meso Scale Discovery, Model Quick Plex SQ 120). The data was then analyzed by software Prism 7.0 from GraphPad and the dose-depended IRAK4 degradation were fit using a three-parameter logistic equation to calculate DC50.
The letter codes for IRAK4 DC50 include: A (<0.01 μM); B (0.01 to <0.1 μM); C (0.1 to 0.2 μM); D (>0.2 μM) and E (not tested).
The DC50 is the midpoint of the concentration-degradation curve. Higher therefore signals a less potent degrader. In turn, `COc1ccc2c(c1N1CC[C@@H](N(C)C[C@H]3CC[C@H](n4cc(NC(=O)c5cnn6cccnc56)c(C(F)F)n4)CC3)[C@H](F)C1)n(C)c(=O)n2C1CCC(=O)NC1=O` (single isomer, unassigned) [I-152] gave a DC50 of less than 10 nM.
In the case of `COc1ccc2c(c1N1CC[C@@H](N(C)C[C@H]3CC[C@H](n4cc(NC(=O)c5cnn6cccnc56)c(C(F)F)n4)CC3)[C@@H](F)C1)n(C)c(=O)n2C1CCC(=O)NC1=O` (single isomer, unassigned) [I-153] it was less than 10 nM.
In turn, `Cn1c(=O)n(C2CCC(=O)NC2=O)c2cccc([C@@H]3CCN(C[C@H]4CC[C@H](n5cc6cc(NC(=O)c7cncc(C(F)(F)F)n7)ccc6n5)CC4)CC3(F)F)c21` (single isomer, unassigned) [I-179] showed a DC50 of less than 10 nM.
Molecule `COc1ccc2c(c1N1CC[C@@H](N(C)C[C@H]3CC[C@H](n4cc(NC(=O)c5cnn6cccnc56)c(C(F)F)n4)CC3)C(F)(F)C1)n(C)c(=O)n2C1CCC(=O)NC1=O` (single isomer, unassigned) [I-204] showed a DC50 of 10 to 100 nM.
In turn, `CN(C[C@H]1CC[C@H](c2cc3cc(NC(=O)c4cncc(C(F)(F)F)n4)ccn3n2)CC1)[C@@H]1CCN(c2cccc3c2n(C)c(=O)n3C2CCC(=O)NC2=O)C[C@@H]1F` (single isomer, unassigned) [I-211] yielded a DC50 greater than 200 nM.
With `CN(C[C@H]1CC[C@H](c2cc3cc(NC(=O)c4cncc(C(F)(F)F)n4)ccn3n2)CC1)[C@H]1CCN(c2cccc3c2n(C)c(=O)n3C2CCC(=O)NC2=O)C[C@H]1F` (single isomer, unassigned) [I-212], the DC50 was 10 to 100 nM.
Take `Cn1c(=O)n([C@@H]2CCC(=O)NC2=O)c2cccc(N3CCC4(CCN(C[C@H]5CC[C@H](n6cc7cc(NC(=O)c8cncc(C#N)c8)c(C(C)(C)O)cc7n6)CC5)CC4(F)F)CC3)c21` (single isomer, unassigned) [I-224]: the DC50 is less than 10 nM.
Consider `Cn1c(=O)n([C@H]2CCC(=O)NC2=O)c2cccc(N3CCC4(CCN(C[C@H]5CC[C@H](n6cc7cc(NC(=O)c8cncc(C#N)c8)c(C(C)(C)O)cc7n6)CC5)CC4(F)F)CC3)c21` (single isomer, unassigned) [I-225], for which the DC50 was less than 10 nM.
Regarding `Cn1nc([C@@H]2CCC(=O)NC2=O)c2cccc([C@@H]3CCN(C[C@H]4CC[C@H](n5cc6cc(NC(=O)c7cncc(C#N)c7)c(C(C)(C)O)cc6n5)CC4)CC3(F)F)c21` (single isomer, unassigned) [I-230], the DC50 was less than 10 nM.
On to `Cn1c(=O)n([C@H]2CCC(=O)NC2=O)c2ccc(F)c([C@@H]3CCN(C[C@H]4CC[C@H](n5cc6cc(NC(=O)c7cncc(C#N)c7)c(C(C)(C)O)cc6n5)CC4)CC3(F)F)c21` (single isomer, unassigned) [I-232], for which the 50% degradation concentration (DC50) was less than 10 nM.
The result for `COc1ccc2c(c1N1CC3(CCN(C[C@H]4CC[C@H](n5cc6cc(NC(=O)c7cncc(C#N)c7)c(C(C)(C)O)cc6n5)CC4)CC3(F)F)C1)n(C)c(=O)n2[C@H]1CCC(=O)NC1=O` (single isomer, unassigned) [I-234] reads less than 10 nM; that for `COc1ccc2c(c1N1CC3(CCN(C[C@H]4CC[C@H](n5cc6cc(NC(=O)c7cncc(C#N)c7)c(C(C)(C)O)cc6n5)CC4)CC3(F)F)C1)n(C)c(=O)n2[C@@H]1CCC(=O)NC1=O` (single isomer, unassigned) [I-235], less than 10 nM.
On to `Cn1c(=O)n([C@H]2CCC(=O)NC2=O)c2cccc([C@@H]3CCN(C[C@H]4CC[C@H](c5nc6cc(C(C)(C)O)c(NC(=O)c7cncc(C#N)c7)cc6s5)CC4)C[C@H]3F)c21` (single isomer, unassigned) [I-236], for which the DC50 was less than 10 nM.
The molecule `Cn1c(=O)n([C@@H]2CCC(=O)NC2=O)c2cccc([C@@H]3CCN(C[C@H]4CC[C@H](c5nc6cc(C(C)(C)O)c(NC(=O)c7cncc(C#N)c7)cc6s5)CC4)C[C@H]3F)c21` (single isomer, unassigned) [I-237] gave a 50% degradation concentration (DC50) of less than 10 nM.
In turn, `COc1cc2nn([C@H]3CC[C@H](CN4CC[C@@H](c5cccc6c5c(C)nn6C5CCC(=O)NC5=O)[C@H](F)C4)CC3)cc2cc1NC(=O)c1cncc(C#N)c1` (single isomer, unassigned) [I-265] gave a DC50 of less than 10 nM.
In turn, `CN(C[C@H]1CC[C@H](c2cn3cc(NC(=O)c4cncc(C(F)(F)F)n4)ccc3n2)CC1)[C@H]1CCN(c2cccc3c2n(C)c(=O)n3C2CCC(=O)NC2=O)C[C@H]1F` (single isomer, unassigned) [I-285] showed a DC50 of less than 10 nM.
For the molecule `COc1ccc2c(c1N1CC[C@H](N(C)C[C@H]3CC[C@H](n4cc(NC(=O)c5cnn6cccnc56)c(C(F)F)n4)CC3)C(F)(F)C1)n(C)c(=O)n2C1CCC(=O)NC1=O` (single isomer, unassigned) [I-289], the DC50 was less than 10 nM.
The result for `CN(C[C@H]1CC[C@H](c2cc3cc(NC(=O)c4cncc(C(F)(F)F)n4)ccn3n2)CC1)[C@@H]1CCN(c2cccc3c2n(C)c(=O)n3C2CCC(=O)NC2=O)C[C@H]1F` (single isomer, unassigned) [I-291] reads greater than 200 nM; that for `CN(C[C@H]1CC[C@H](c2cc3cc(NC(=O)c4cncc(C(F)(F)F)n4)ccn3n2)CC1)[C@H]1CCN(c2cccc3c2n(C)c(=O)n3C2CCC(=O)NC2=O)C[C@@H]1F` (single isomer, unassigned) [I-292], 10 to 100 nM; that for `CN(C[C@H]1CC[C@H](c2nc3cc(C(C)(C)O)c(NC(=O)c4cncc(C(F)(F)F)n4)cc3o2)CC1)[C@H]1CCN(c2cccc3c2n(C)c(=O)n3C2CCC(=O)NC2=O)C[C@@H]1F` (single isomer, unassigned) [I-298], less than 10 nM.
`CN(C[C@H]1CC[C@H](c2nc3cc(C(C)(C)O)c(NC(=O)c4cncc(C(F)(F)F)n4)cc3o2)CC1)[C@H]1CCN(c2cccc3c2n(C)c(=O)n3C2CCC(=O)NC2=O)C[C@H]1F` (single isomer, unassigned) [I-299] came in with a DC50 of less than 10 nM.
`CN(C[C@H]1CC[C@H](c2nc3cc(C(C)(C)O)c(NC(=O)c4cncc(C(F)(F)F)n4)cc3s2)CC1)[C@@H]1CCN(c2cccc3c2n(C)c(=O)n3C2CCC(=O)NC2=O)C[C@H]1F` (single isomer, unassigned) [I-300] showed a 50% degradation concentration (DC50) of less than 10 nM.
`Cn1c(=O)n(C2CCC(=O)NC2=O)c2cccc(C#CCN3CCN(C[C@H]4CC[C@H](n5cc(NC(=O)c6cnn7ccc(N8C[C@H]9C[C@@H]8CO9)nc67)c(C(F)F)n5)CC4)C[C@@H]3C(F)(F)F)c21` (single isomer, unassigned) [I-303] had a DC50 of 10 to 100 nM.
Molecule `COc1cc2nc([C@H]3CC[C@H](CN(C)[C@@H]4CCN(c5cccc6c5n(C)c(=O)n6C5CCC(=O)NC5=O)C[C@H]4F)CC3)cn2cc1NC(=O)c1cncc(C(F)(F)F)n1` (single isomer, unassigned) [I-317] registered a DC50 of less than 10 nM.
The molecule `COc1cc2nc([C@H]3CC[C@H](CN(C)[C@H]4CCN(c5cccc6c5n(C)c(=O)n6C5CCC(=O)NC5=O)C[C@@H]4F)CC3)cn2cc1NC(=O)c1cncc(C(F)(F)F)n1` (single isomer, unassigned) [I-318] showed a 50% degradation concentration (DC50) of less than 10 nM.
In the case of `Cn1c(=O)n(C2CCC(=O)NC2=O)c2cccc(N3CCN(C[C@H]4CC[C@H](n5cc6cc(NC(=O)c7cncc(C(F)(F)F)n7)ccc6n5)CC4)C[C@H]3C(F)(F)F)c21` (single isomer, unassigned) [I-325] it was 10 to 100 nM.
Molecule `Cn1c(=O)n(C2CCC(=O)NC2=O)c2cccc([C@@H]3CCN(C[C@H]4CC[C@H](c5nc6cc(C(C)(C)O)c(NC(=O)c7cncc(C(F)(F)F)n7)cc6o5)CC4)CC3(F)F)c21` (single isomer, unassigned) [I-327] returned a DC50 of less than 10 nM.
In turn, `Cn1c(=O)n(C2CCC(=O)NC2=O)c2cccc([C@H]3CCN(C[C@H]4CC[C@H](c5nc6cc(C(C)(C)O)c(NC(=O)c7cncc(C(F)(F)F)n7)cc6o5)CC4)CC3(F)F)c21` (single isomer, unassigned) [I-328] registered a DC50 of 10 to 100 nM.
As to `COc1cc2nc([C@H]3CC[C@H](CN(C)[C@H]4CCN(c5cccc6c5n(C)c(=O)n6C5CCC(=O)NC5=O)C[C@H]4F)CC3)cn2cc1NC(=O)c1cncc(C(F)(F)F)n1` (single isomer, unassigned) [I-333], the DC50 is less than 10 nM.
For `CN(C[C@H]1CC[C@H](c2cn3cc(NC(=O)c4cncc(C(F)(F)F)n4)c(C(C)(C)O)cc3n2)CC1)[C@@H]1CCN(c2cccc3c2n(C)c(=O)n3C2CCC(=O)NC2=O)C[C@H]1F` (single isomer, unassigned) [I-334], the 50% degradation concentration (DC50) was less than 10 nM.
